Results taken from ChEMBL document CHEMBL1121909, “Alkylating angiotensin II analogues: synthesis, analysis, and biological activity of angiotensin II analogues containing the nitrogen mustard melphalan in position 8” (J Med Chem, 1981).
Where a SMILES comes first, the peptide text is derived from it. [ ]: non-standard residue; d: D form. Phe(4-N(CH2CH2Cl)2) = N[C@@H](Cc1ccc(N(CCCl)CCCl)cc1)C(=O)O

Legend:
Rattus norvegicus [1] = test: The compound was tested in vivo for pressor activity in Rat uterine preparation; format: functional
Rattus norvegicus [2] = organism: Rattus norvegicus; test: Antagonism against angiotensin II induced contraction in Rat uterine preparation; format: functional; settings: read-out: pA2 (converted)

SMILES | Activity (Rattus norvegicus [1]) [%] | Kb (Rattus norvegicus [2]) [nM]
CC[C@H](C)[C@@H](NC(=O)[C@H](Cc1ccc(O)cc1)NC(=O)[C@@H](NC(=O)[C@H](CCCNC(N)N)NC(=O)[C@@H](N)CC(=O)O)C(C)C)[C@@H](C)N[C@@H](Cc1c[nH]cn1)C(=O)N1CCC[C@@H]1C(=O)N[C@@H](Cc1ccc(N(CCCl)CCCl)cc1)C(=O)O | 0.3 | –
CC[C@H](C)[C@H](NC(=O)[C@H](Cc1ccc(O)cc1)NC(=O)[C@@H](NC(=O)[C@H](CCCN=C(N)N)NC(=O)[C@H](CC(N)=O)NC(C)=O)C(C)C)C(=O)N[C@@H](Cc1c[nH]cn1)C(=O)N1CCC[C@H]1C(=O)N[C@@H](Cc1ccc(N(CCCl)CCCl)cc1)C(=O)O (Ac-NRVYIHP[Phe(4-N(CH2CH2Cl)2)]-OH) | – | 3.16
